Earlier results as cited in patent publication EP2382994A1, “Ligand targeted nanocapsules for the delivery of RNAi and other agents” (Cattaneo, Maurizio Victor, priority 2010, dated 2011).

Columns and labels:
[1] = systemic delivery of 20 mg DOX; Tang et al. 2007

SMILES: COc1cccc2c1C(=O)c1c(O)c3c(c(O)c1C2=O)C[C@@](O)(C(=O)CO)C[C@@H]3O[C@H]1C[C@H](N)[C@H](O)[C@H](C)O1 [DOX, Doxorubicin]
- clinical efficacy in melanoma (advanced stage melanoma): essentially ineffective
- lethal toxicity, time of treatment [1]: ≤ 8 days
